T/C data for twelve compounds are collected here from PubChem BioAssay AID328 (DTP/NCI, 2004).

“And” between values parts separate entries of the source, which are not always exact repeats. Equal entries are not always repeated. Toxic doses and inconclusive results are not listed.

This experiment concerns BDF1 mice, P388 leukemia ip, median survival T/C. Kind of experiment: NCI In Vivo Anticancer Drug Screen. Data for tumor model P388 Leukemia (intraperitoneal) in B6D2F1 (BDF1) mice. To be noted: endpoint: median survival time, higher = longer survival. Put shortly:
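Read-out is survival of treated animals expressed relative to the vehicle group, as a T/C ratio.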

Where [1] appears, read: dose: 25.0 mg/kg/injection, schedule: Q01DX009 (ip), vehicle: saline with Tween-80.
Where [2] appears, read: dose: 50.0 mg/kg/injection, schedule: Q01DX009 (ip), vehicle: saline with Tween-80.
Where [3] appears, read: dose: 100.0 mg/kg/injection, schedule: Q01DX009 (ip), vehicle: saline with Tween-80.
Setting [4] is: dose: 6.25 mg/kg/injection, schedule: Q04DX003 (ip), vehicle: saline.
Where [5] appears, read: dose: 12.5 mg/kg/injection, schedule: Q04DX003 (ip), vehicle: saline.
Where [6] appears, read: dose: 25.0 mg/kg/injection, schedule: Q01DX009 (ip), vehicle: saline.
Setting [7] is: dose: 25.0 mg/kg/injection, schedule: Q04DX003 (ip), vehicle: saline.
[8] abbreviates: dose: 50.0 mg/kg/injection, schedule: Q01DX009 (ip), vehicle: saline.
[9] abbreviates: dose: 100.0 mg/kg/injection, schedule: Q04DX003 (ip), vehicle: saline.

Take `CCCNC(=O)/C=C\S(=O)CCC` (stereo unspecified): the T/C was 100 % of control under setting [1], 98 % of control under setting [2] and 112 % of control under setting [3].
Take `NNc1nncc2ccccc12`: the T/C is, setting by setting: under setting [4], 90 % of control; under setting [5], 90 % of control; under setting [6], 109 % of control; under setting [7], 113 % of control; under setting [8], 90 % of control; under setting [9], 100 % of control.
In the case of `ClCC[N-]CC[N-]CCCl.ClCC[N-]CC[N-]CCCl.[O-][Cl+3]([O-])([O-])O.[Zn+2]`, the T/C (dose: 2.5 mg/kg/injection, schedule: Q04DX003 (ip), vehicle: Klucel (hydroxypropylcellulose) (HPC)) is 105 % of control; the T/C (dose: 5.0 mg/kg/injection, schedule: Q03DX003 (ip), vehicle: saline) was 110 % of control; the T/C (dose: 5.0 mg/kg/injection, schedule: Q04DX003 (ip), vehicle: Klucel (hydroxypropylcellulose) (HPC)) was 112 % of control; the T/C (dose: 10.0 mg/kg/injection, schedule: Q04DX003 (ip), vehicle: Klucel (hydroxypropylcellulose) (HPC)) was 108 % of control; the T/C (dose: 20.0 mg/kg/injection, schedule: Q04DX003 (ip), vehicle: Klucel (hydroxypropylcellulose) (HPC)) was 124 % of control; the T/C (dose: 40.0 mg/kg/injection, schedule: Q03DX003 (ip), vehicle: saline) was 75 % of control. Moreover, the T/C reads like this: (dose: 40.0 mg/kg/injection, schedule: Q04DX003 (ip), vehicle: Klucel (hydroxypropylcellulose) (HPC)) 154 % of control; (dose: 80.0 mg/kg/injection, schedule: Q03DX003 (ip), vehicle: saline) 33 % of control.
Take `CCOC(=O)/C=C(\C)C(=O)c1ccc(OC)c(OC)c1OCc1ccccc1`: the T/C (dose: 12.5 mg/kg/injection, schedule: Q01DX009 (ip), vehicle: saline with Tween-80) is 100 % of control; the T/C under setting [1] is 100 % of control; the T/C under setting [2] was 90 % of control; the T/C under setting [3] is 90 % of control; the T/C (dose: 200.0 mg/kg/injection, schedule: Q01DX009 (ip), vehicle: saline with Tween-80) was 100 % of control.
With `CCCCCCCCOP(=O)(N1CC1)N1CC1`, the T/C under setting [5] was 170 % of control; the T/C (dose: 14.0 mg/kg/injection, schedule: Q04DX003 (ip), vehicle: saline) was 150 % of control; the T/C (dose: 21.0 mg/kg/injection, schedule: Q04DX003 (ip), vehicle: saline) was 154 % of control; the T/C under setting [6] is 183 % of control; the T/C under setting [7] is 160 % of control; the T/C (dose: 33.0 mg/kg/injection, schedule: Q01DX009 (ip), vehicle: saline) was 211 % of control. In addition, the T/C by setting is: (dose: 33.0 mg/kg/injection, schedule: Q04DX003 (ip), vehicle: saline) 180 % of control and 222 % of control; under setting [8], 230 % of control and 250 % of control; (dose: 50.0 mg/kg/injection, schedule: Q04DX003 (ip), vehicle: saline) 242 % of control and 285 % of control; (dose: 75.0 mg/kg/injection, schedule: Q01DX009 (ip), vehicle: saline) 111 % of control; (dose: 75.0 mg/kg/injection, schedule: Q04DX003 (ip), vehicle: saline) 285 % of control.
As to `CN1CCN=C1c1ccc(NC(=O)c2ccc(C(=O)Nc3ccc(C4=NCCN4C)cc3)cc2)cc1`, the T/C by setting is: (dose: 3.13 mg/kg/injection, schedule: Q04DX003 (ip), vehicle: saline) 100 % of control; (dose: 4.0 mg/kg/injection, schedule: Q01DX009 (ip), vehicle: saline) 213 % of control; (dose: 6.0 mg/kg/injection, schedule: Q01DX009 (ip), vehicle: saline) 240 % of control; under setting [4], 95 % of control; (dose: 9.0 mg/kg/injection, schedule: Q01DX009 (ip), vehicle: saline) 245 % of control.
Consider `C=CC(C)(O)/C=C/C=C(\C)C(CC1OC1(C)C)OC(=O)/C(C)=C\C` (stereo unspecified), for which the T/C runs as follows: (dose: 0.78 mg/kg/injection, schedule: Q01DX009 (ip), vehicle: saline) 106 % of control; (dose: 1.56 mg/kg/injection, schedule: Q01DX009 (ip), vehicle: saline) 95 % of control; (dose: 3.13 mg/kg/injection, schedule: Q01DX009 (ip), vehicle: saline) 95 % of control; (dose: 6.25 mg/kg/injection, schedule: Q01DX009 (ip), vehicle: saline) 113 % of control.
Turning to `CC(C)[CH2][Sn]([CH2]C(C)C)([CH2]C(C)C)[C](C)(C)C`, the T/C by setting is: under setting [9], 103 % of control; (dose: 200.0 mg/kg/injection, schedule: Q04DX003 (ip), vehicle: saline) 112 % of control; (dose: 400.0 mg/kg/injection, schedule: Q04DX003 (ip), vehicle: saline) 112 % of control.
As to `C=C(NC(=O)C(=C)NC(=O)c1csc(C2=NC3c4csc(n4)C4NC(=O)c5csc(n5)C(C(C)(O)C(C)O)NC(=O)C5CSC(=N5)/C(=C/C)NC(=O)C(C(C)O)NC(=O)c5csc(n5)C3(CC2)NC(=O)C(C)NC(=O)C(=C)NC(=O)C(C)NC(=O)C(C(C)CC)NC2C=Cc3c(C(C)O)cc(nc3C2O)C(=O)OC4C)n1)C(N)=O` (stereo unspecified), the T/C (dose: 18.75 mg/kg/injection, schedule: Q01DX009 (ip), vehicle: Klucel (hydroxypropylcellulose) (HPC)) was 112 % of control; the T/C (dose: 37.5 mg/kg/injection, schedule: Q01DX009 (ip), vehicle: Klucel (hydroxypropylcellulose) (HPC)) is 114 % of control; the T/C (dose: 50.0 mg/kg/injection, schedule: Q01DX009 (ip), vehicle: Klucel (hydroxypropylcellulose) (HPC)) was 158 % of control; the T/C (dose: 75.0 mg/kg/injection, schedule: Q01DX009 (ip), vehicle: Klucel (hydroxypropylcellulose) (HPC)) was 114 % of control; the T/C (dose: 100.0 mg/kg/injection, schedule: Q01DX009 (ip), vehicle: Klucel (hydroxypropylcellulose) (HPC)) is 155 % of control and 163 % of control; the T/C (dose: 200.0 mg/kg/injection, schedule: Q01DX009 (ip), vehicle: Klucel (hydroxypropylcellulose) (HPC)) is 156 % of control and 165 % of control and 182 % of control. In addition, the T/C (dose: 300.0 mg/kg/injection, schedule: Q01DX009 (ip), vehicle: Klucel (hydroxypropylcellulose) (HPC)) was 114 % of control.
As for `O=[N+]([O-])c1cc([N+](=O)[O-])c(Cl)cc1Cl`, the T/C runs as follows: (dose: 3.13 mg/kg/injection, schedule: Q01DX009 (ip), vehicle: Klucel (hydroxypropylcellulose) (HPC)) 104 % of control; (dose: 6.25 mg/kg/injection, schedule: Q01DX009 (ip), vehicle: Klucel (hydroxypropylcellulose) (HPC)) 104 % of control; (dose: 12.5 mg/kg/injection, schedule: Q01DX009 (ip), vehicle: Klucel (hydroxypropylcellulose) (HPC)) 109 % of control; (dose: 50.0 mg/kg/injection, schedule: Q04DX003 (ip), vehicle: Klucel (hydroxypropylcellulose) (HPC)) 103 % of control; (dose: 200.0 mg/kg/injection, schedule: Q04DX003 (ip), vehicle: Klucel (hydroxypropylcellulose) (HPC)) 92 % of control.
For the compound `C[N+]1(C)N=C([O-])N(c2ccccc2[N+](=O)[O-])C1=O`, the T/C under setting [2] is 88 % of control.
Regarding `O=[N+]([O-])c1ccccc1CN1c2ccccc2N=C2c3ccccc3CC21` (stereo unspecified), the T/C was 116 % of control (dose: 100.0 mg/kg/injection, schedule: Q04DX003 (ip), vehicle: saline sonified); 100 % of control (dose: 200.0 mg/kg/injection, schedule: Q04DX003 (ip), vehicle: saline sonified); 91 % of control (dose: 400.0 mg/kg/injection, schedule: Q04DX003 (ip), vehicle: saline sonified).
